Data reported in ChEMBL document CHEMBL1201862, “PubChem BioAssay data set” (2004).
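Grown in 96-well plates, cells were treated for 48 hours with each compound at five concentrations. Insufficient inhibition: endpoint recorded as highest concentration tested. Here, GI50 denotes the concentration required for 50% inhibition of growth.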 Activity calls are given as the source filed them. Rule as the data show it: active = GI50 up to about 1.1 µM and inactive = higher.

How the values were obtained:
Assay in all cases: NCI-60 cell line screen, 48 h
A498 = system: A498
EKVX = system: EKVX
HOP-62 = system: HOP-62
HOP-92 = system: HOP-92
HT-29 = system: HT-29
IGROV-1 = system: IGROV-1
MOLT-4 = system: MOLT-4
NCI-H23 = system: NCI-H23
OVCAR-3 = system: OVCAR-3
OVCAR-5 = system: OVCAR-5
OVCAR-8 = system: OVCAR-8
SK-MEL-2 = system: SK-MEL-2
SNB-19 = system: SNB-19
SNB-75 = system: SNB-75
UACC-257 = system: UACC-257
UACC-62 = system: UACC-62
UO-31 = system: UO-31
RXF 393 = system: RXF 393

Measured: GI50

COC(=O)c1ccc(C(=O)OC)c2nc3cc(Cl)ccc3nc12
inactive: A498 > 100 µM | EKVX > 100 µM | HOP-62 > 100 µM | HOP-92 > 100 µM | HT-29 75.3 µM | IGROV-1 > 100 µM | MOLT-4 > 100 µM | NCI-H23 > 100 µM | OVCAR-3 > 100 µM | OVCAR-5 > 100 µM | OVCAR-8 > 100 µM | SK-MEL-2 > 100 µM | SNB-19 > 100 µM | SNB-75 > 100 µM | UACC-257 > 100 µM | UACC-62 > 100 µM | UO-31 > 100 µM

CNS(=O)(=O)NNS(=O)(=O)c1cccc([N+](=O)[O-])c1
inactive: EKVX > 100 µM | HOP-62 > 100 µM | HT-29 > 100 µM | IGROV-1 > 100 µM | MOLT-4 > 100 µM | NCI-H23 > 100 µM | OVCAR-3 > 100 µM | OVCAR-8 > 100 µM | RXF 393 > 100 µM | SK-MEL-2 > 100 µM | SNB-19 > 100 µM | SNB-75 > 100 µM | UACC-257 > 100 µM | UACC-62 > 100 µM | UO-31 > 100 µM

CCOC(=O)C1=C(C)N(NC(=O)Nc2ccccc2)C2(N)N(NC(=O)Nc3ccccc3)C(C)=C(C(=O)OCC)C12C#N (stereo not drawn)
inactive: A498 22.3 µM | HOP-92 20.2 µM | HT-29 20.7 µM | IGROV-1 19.7 µM | MOLT-4 21.6 µM | NCI-H23 22.3 µM | OVCAR-3 17.5 µM | OVCAR-5 17.8 µM | OVCAR-8 18.5 µM | RXF 393 13.6 µM | SK-MEL-2 16.1 µM | SNB-75 18.9 µM | UACC-257 23.7 µM | UACC-62 17.5 µM | UO-31 > 100 µM

Cc1nc(Nc2ccccc2)sc1C(=O)CC(=O)C(=O)NC12CC3CC(CC(C3)C1)C2
inactive: EKVX 7.21 µM | HOP-62 83.2 µM | HOP-92 23 µM | HT-29 > 100 µM | IGROV-1 84.5 µM | MOLT-4 > 100 µM | NCI-H23 > 100 µM | OVCAR-3 > 100 µM | OVCAR-5 > 100 µM | OVCAR-8 > 100 µM | RXF 393 54.6 µM | SK-MEL-2 > 100 µM | SNB-19 > 100 µM | SNB-75 33.9 µM | UACC-257 > 100 µM | UACC-62 41.4 µM | UO-31 92.3 µM

Cn1c2cc([N+](=O)[O-])ccc2c(=O)c2c(O)cc3c(c21)C=CC(C)(C)O3
inactive: A498 33.5 µM | EKVX 22 µM | HT-29 > 100 µM | IGROV-1 31.1 µM | MOLT-4 > 100 µM | NCI-H23 63.4 µM | OVCAR-5 32 µM | OVCAR-8 59.3 µM | RXF 393 25.9 µM | SK-MEL-2 40.7 µM | SNB-19 31.6 µM | SNB-75 10.1 µM | UACC-257 > 100 µM | UACC-62 25.1 µM | UO-31 26.7 µM

CCCC/C=C1\CCC(CN2CCCC2)C1=O (stereo not drawn)
inactive: A498 14.7 µM | EKVX 3.98 µM | HOP-62 18.4 µM | HOP-92 12.1 µM | HT-29 14.5 µM | IGROV-1 18.4 µM | MOLT-4 3.57 µM | NCI-H23 17.7 µM | OVCAR-3 17.1 µM | OVCAR-5 19.1 µM | OVCAR-8 15.1 µM | SK-MEL-2 16 µM | SNB-19 21.8 µM | SNB-75 18.4 µM | UACC-257 18.1 µM | UACC-62 17.1 µM | UO-31 17.2 µM

Cc1ccc(/C=C/C(=O)c2sc(-c3cccnc3)nc2C)cc1
inactive: A498 > 100 µM | EKVX > 100 µM | HOP-62 > 100 µM | HOP-92 > 100 µM | HT-29 > 100 µM | IGROV-1 > 100 µM | MOLT-4 > 100 µM | NCI-H23 > 100 µM | OVCAR-3 > 100 µM | OVCAR-5 > 100 µM | OVCAR-8 > 100 µM | RXF 393 98.9 µM | SK-MEL-2 > 100 µM | UACC-257 > 100 µM | UACC-62 > 100 µM | UO-31 > 100 µM

Cc1nc2c(n1CC(C)(C)C)C(=O)c1ccccc1C2=O
inactive: EKVX > 100 µM | HOP-62 > 100 µM | HOP-92 16.7 µM | HT-29 98.9 µM | IGROV-1 > 100 µM | MOLT-4 91.2 µM | NCI-H23 > 100 µM | OVCAR-3 66.7 µM | OVCAR-8 > 100 µM | RXF 393 > 100 µM | SK-MEL-2 > 100 µM | SNB-19 > 100 µM | SNB-75 > 100 µM | UACC-257 80.7 µM | UACC-62 89.5 µM | UO-31 > 100 µM

Cc1nc2nnc(C)n2c2c1C(=O)Nc1ccccc1N2
inactive: EKVX > 100 µM | HOP-62 > 100 µM | HOP-92 > 100 µM | HT-29 > 100 µM | IGROV-1 > 100 µM | MOLT-4 > 100 µM | NCI-H23 > 100 µM | OVCAR-3 > 100 µM | OVCAR-8 > 100 µM | RXF 393 > 100 µM | SK-MEL-2 > 100 µM | SNB-19 > 100 µM | SNB-75 > 100 µM | UACC-257 > 100 µM | UACC-62 > 100 µM | UO-31 > 100 µM

CCOC(=O)[C@H]1Nc2ccc(OC)cc2C2c3ccccc3CC21 (stereo partly drawn)
inactive: A498 > 100 µM | HOP-62 > 100 µM | HT-29 > 100 µM | IGROV-1 > 100 µM | MOLT-4 > 100 µM | NCI-H23 > 100 µM | OVCAR-3 > 100 µM | OVCAR-5 > 100 µM | OVCAR-8 > 100 µM | RXF 393 37.5 µM | SK-MEL-2 > 100 µM | SNB-19 > 100 µM | SNB-75 83.9 µM | UACC-257 > 100 µM | UACC-62 > 100 µM | UO-31 > 100 µM

C/C(=N\NC(=N)N)C(CN1CCOCC1)C(c1ccccc1)c1c(O)c2ccccc2oc1=O (stereo not drawn)
inactive: EKVX > 100 µM | HOP-62 > 100 µM | HOP-92 25.7 µM | HT-29 > 100 µM | IGROV-1 > 100 µM | MOLT-4 66.2 µM | NCI-H23 76.7 µM | OVCAR-3 > 100 µM | OVCAR-5 > 100 µM | OVCAR-8 > 100 µM | RXF 393 29 µM | SK-MEL-2 > 100 µM | SNB-19 > 100 µM | SNB-75 24.9 µM | UACC-257 > 100 µM | UACC-62 81.3 µM

[N-]=[N+]=NC12CC3C4CC5CC3C(C1)C(C5)C4C2
inactive: A498 > 100 µM | EKVX > 100 µM | HOP-62 > 100 µM | HOP-92 > 100 µM | HT-29 > 100 µM | IGROV-1 > 100 µM | MOLT-4 > 100 µM | NCI-H23 > 100 µM | OVCAR-3 > 100 µM | OVCAR-5 > 100 µM | OVCAR-8 > 100 µM | SK-MEL-2 > 100 µM | SNB-19 > 100 µM | SNB-75 > 100 µM | UACC-257 > 100 µM | UACC-62 > 100 µM | UO-31 > 100 µM
